Like-named read-outs stand apart in the source and are kept apart here. Bridge positions count the residues as written; N and C are the ends. Square brackets hold non-standard residues; d marks the D form. Ends that are not written are not given here. Abu = CC[C@H](N)C(=O)O
Assays:
[1] = system: P. aeruginosa (ATCC 27853); format: cell-based, Pseudomonas aeruginosa
Method: (§1) The minimum inhibitory concentrations (MIC) of AvBDs were determined according to the guidelines of the Clinical and Laboratory Standards Institute (CLSI). The Muller Hinton II broth used in standard MIC assays contained 20–25 mg/L of calcium and 10–12.5 mg/L of magnesium. Modified MICs of AvBDs were also determined under a low-salt and low-nutrient condition by using 100× diluted Muller Hinton II broth containing 0.2 mg/L of calcium, 0.1 mg/L magnesium and 5 mM (292 mg/L) NaCl. MIC obtained under the low-salt and low-nutrient condition was referred to as MIC-ls. AvBD peptides were two-fold serially diluted (2 to 256 μg/ml) in a 96-well microtiter plate. An equal volume (μl) of bacterial suspension was added to each well of the plate. The final bacterial concentration in the wells was 5 × 10^5 CFU/ml. […] To complement MIC-ls assays, the minimum bactericidal concentrations (MBC) were evaluated by sub-culturing the contents of the first two clear wells obtained in the MIC-ls assay onto LB agar plates. All assays were conducted in triplicate. The lowest peptide concentration inhibiting more than 99% of bacterial growth was defined as MBC-ls. AvBD analogues were regarded as bactericidal if the MBC was no more than four times the MIC [29].

[2] = system: Salmonella enteric serovar Typhimurium (ATCC 14028); format: cell-based
Method: (§2) Escherichia coli (ATCC 25922), Pseudomonas aeruginosa (ATCC 27853), Salmonella enteric serovar Typhimurium (ATCC 14028) and Staphylococcus aureus (ATCC 29213) were used to assess the antimicrobial activity of AvBD analogues. All bacterial strains were grown on Luria-Bertani (LB) agar plates or Trypticase Soy Agar with 5% Sheep Blood (TSA, Thermo Fisher Scientific) plates at 37 °C. Antimicrobial activity was determined by a colony counting assay. In brief, bacteria were resuspended in 100-fold diluted Mueller Hinton II broth with 5 mM NaCl (minimal growth medium) to obtain a final bacterial concentration of 2 × 10^5 CFU/ml. Twenty-five microliters of bacterial suspension and 25 μl of AvBD analogue solution were mixed in the wells of a 96-well polypropylene microtiter plate (Nunc™, Thermo Fisher Scientific). The final peptide concentrations were 2, 4, 8, 16, 32, 64 and 128 μg/ml. The minimal growth medium without AvBD peptide was included as a negative control. The bacterial-peptide mixtures were incubated at 37 °C for 2 h, ten-fold serially diluted and plated on LB agar plates. The numbers of bacteria colonies were enumerated after 16 h of incubation at 37 °C. Antimicrobial activity was expressed as percent of killing using the following formula: (CFUcontrol - CFUtreated) / CFUcontrol × 100%. To assess the resistance of AvBD analogues to sodium chloride (NaCl), antimicrobial assays were carried out in the presence of 5 mM, 50 mM, 100 mM or 150 mM NaCl. All assays were performed in triplicate.

[3] = system: S. aureus (ATCC 29213); format: cell-based, Staphylococcus aureus
Method: as §1

[4] = system: E. coli (ATCC 25922); format: cell-based, Escherichia coli
Method: as §1

[5] = system: S. Typhimurium (ATCC 14028); format: cell-based, Salmonella enteric serovar Typhimurium
Method: as §1

[6] = system: CHO-K1 cells; assay: MTT cell cytotoxicity assay; format: cell-based; conditions: 256 μg/ml; 4, 12, 24 and 48 hours; Student t-test treated vs untreated; n = 3; Figure S1
Method: Chicken macrophage cell lines MQ-NCSU and HD11 were maintained in RPMI-1640 media supplemented with 10% fetal bovine serum (FBS), 2% chicken serum, 100 U/ml penicillin and 100 μg/ml streptomycin (Sigma-Aldrich) at 37 °C in humidified air with 5% CO2. CHO-K1 cells were cultured in the same media without 2% chicken serum. For CCR2-transfected CHO-K1 cells, the medium was supplemented with 500 μg/ml G418 was added (Sigma-Aldrich). Murine immature dendritic cell line JAWSII (ATCC CRL-11904™) was cultured in Alpha minimum essential medium containing 4 mM L-glutamine, 1 mM sodium pyruvate, 5 ng/ml murine Granulocyte macrophage colony-stimulating factor (GM-CSF), 20% FBS, 100 U/ml penicillin and 100 μg/ml streptomycin at 37 °C in humidified air with 5% CO2. The cell cytotoxicity was determined using the MTT (3-(4, 5-dimethylthiazol-2-yl)-2, 5-diphenyltetrazolium bromide metabolic activity assay according to the manufacturer’s instruction (Thermo Fisher Scientific). Briefly, cells (5 × 10^3 cells/well) were seeded in 96-well tissue culture plates, incubated overnight and treated with AvBDs at concentrations of 4, 16, 64 and 256 μg/ml for 4, 12, 24 and 48 h at 37 °C. After treatment, 20 μl of 12 mM MTT solution was added to each well. The plate was incubated for 4 h and read at 540 nm. Viability was expressed as percentage of viable cells relative to the untreated control. The experiments were performed in triplicate.

[7] = system: mouse immature dendritic JAWSII cells; assay: Chemotaxis assay, 48-well microchemotaxis chamber; format: cell-based; conditions: Fig. 9; n = 5
Method: Migration of JAWSII and CCR2-CHO-K1 cells in response to AvBD-12 analogues was determined using a 48-well microchemotaxis chamber technique as previously described. Chemotaxis buffer (Minimum Essential Medium containing 0.1% BSA, 100U/ml penicillin, and 100 μg/ml streptomycin) and bacterial peptide N-Formyl-methionyl-leucyl-phenylalanine (fMLF, Sigma-Aldrich) were included as negative and positive controls, respectively. The results were presented as chemotactic index (C.I.). C.I. = number of migrated cells induced by AvBDs / number of migrated cells induced by chemotactic buffer. The assay was repeated five times.

[8] = system: Escherichia coli (ATCC 25922); format: cell-based; conditions: ATCC 25922, 2 h, 16 μg/ml
Method: as §2

[9] = system: Staphylococcus aureus (ATCC 29213); format: cell-based; conditions: ATCC 29213, 2 h
Method: as §2

[10] = system: Pseudomonas aeruginosa (ATCC 27853); format: cell-based; conditions: ATCC 27853, 2 h
Method: as §2

[11] = 100× diluted Muller Hinton II broth, 5 mM NaCl, 5 × 10^5 CFU/ml, 37 °C, 24 h, triplicate
[12] = CLSI, standard Muller Hinton II broth, 5 × 10^5 CFU/ml, 37 °C, 24 h, triplicate
[13] = sub-culture of clear MIC-ls wells on LB agar, lowest concentration inhibiting more than 99% of growth, triplicate

GPDS[Abu]NHDRGLCRVGNCNPGEYLAKYCFEPVIL[Abu]CKPLSPTPTKT (disulfide 12-27, 17-35) [AvBD-12A4]
MBC-ls P. aeruginosa (ATCC 27853) ([1]; ATCC 27853, 24 h): >256 µg/mL
MIC-ls P. aeruginosa (ATCC 27853) ([1]; ATCC 27853, 24 h): 256 µg/mL
killing activity against S. Typhimurium compared with AvBD-12 (in words) ([2]; 2 to 128 μg/ml, 2 h at 37 °C, p < 0.05, Fig. 4): weaker action than AvBD-12
MBC-ls S. aureus (ATCC 29213) ([3]; ATCC 29213, 24 h): >256 µg/mL
MIC-ls S. aureus (ATCC 29213) ([3]; ATCC 29213, 24 h): >256 µg/mL
MBC-ls E. coli (ATCC 25922) ([4]; ATCC 25922, 24 h): >256 µg/mL
MIC-ls E. coli (ATCC 25922) ([4]; ATCC 25922, 24 h): 128 µg/mL
MBC-ls S. Typhimurium (ATCC 14028) ([5]; ATCC 14028, 24 h): >256 µg/mL
MIC-ls S. Typhimurium (ATCC 14028) ([5]; ATCC 14028, 24 h): 256 µg/mL

GPDSC^1NHDRGLC^2RVGNC^3NPGEYLAKYC^4FEPVILC^5C^6VRNRWA (bicyclic or more) [AvBD-12/6, group 3 hybrid peptide: backbone of AvBD-12 with amino acid residues of AvBD-6]
MIC-ls P. aeruginosa (ATCC 27853) [1, 11]: 64 µg/mL
MIC P. aeruginosa (ATCC 27853) [1, 12]: >256 µg/mL
MBC-ls P. aeruginosa (ATCC 27853) [1, 13]: 256 µg/mL
metabolic activity (viability relative to untreated control), CHO-K1 [6]: No significant difference was found
chemotactic activity for JAWSII cells (in words) [7]: retained the chemotactic function
MIC-ls S. aureus (ATCC 29213) [3, 11]: 256 µg/mL
MIC S. aureus (ATCC 29213) [3, 12]: 256 µg/mL
MBC-ls S. aureus (ATCC 29213) [3, 13]: 256 µg/mL
MIC-ls E. coli (ATCC 25922) [4, 11]: 8 µg/mL
MIC E. coli (ATCC 25922) [4, 12]: 256 µg/mL
MBC-ls E. coli (ATCC 25922) [4, 13]: 32 µg/mL
MIC-ls S. Typhimurium (ATCC 14028) [5, 11]: 16 µg/mL
MIC S. Typhimurium (ATCC 14028) [5, 12]: >256 µg/mL
MBC-ls S. Typhimurium (ATCC 14028) [5, 13]: 64 µg/mL

GPRSSNHKRGLSRVGNSNPGKYLAKYAFRPVILAAKPLSPTPTKT [AvBD-12A2]
MBC-ls P. aeruginosa (ATCC 27853) ([1]; ATCC 27853, 24 h): 32 µg/mL
MIC-ls P. aeruginosa (ATCC 27853) ([1]; ATCC 27853, 24 h): 16 µg/mL
killing potency against E. coli retained at 150 mM NaCl [8]: approximately 80%
percent of killing of E. coli [8]: 100%
percent of killing of S. aureus ([9]; 16 μg/ml): 83.1%
killing activity against S. aureus retained at 150 mM NaCl ([9]; 64 μg/ml): 30-60%
percent of killing of S. Typhimurium ([2]; ATCC 14028, 2 h, 16 μg/ml): 93.9%
killing activity against S. Typhimurium retained at 150 mM NaCl ([2]; ATCC 14028, 2 h, 32 μg/ml): 30-60%
percent of killing of P. aeruginosa ([10]; 16 μg/ml): 98%
killing potency against P. aeruginosa retained at 150 mM NaCl ([10]; 32 μg/ml): approximately 80%
MBC-ls S. aureus (ATCC 29213) ([3]; ATCC 29213, 24 h): 256 µg/mL
MIC-ls S. aureus (ATCC 29213) ([3]; ATCC 29213, 24 h): 256 µg/mL
MBC-ls E. coli (ATCC 25922) ([4]; ATCC 25922, 24 h): 16 µg/mL
MIC-ls E. coli (ATCC 25922) ([4]; ATCC 25922, 24 h): 4 µg/mL
MBC-ls S. Typhimurium (ATCC 14028) ([5]; ATCC 14028, 24 h): 64 µg/mL
MIC-ls S. Typhimurium (ATCC 14028) ([5]; ATCC 14028, 24 h): 16 µg/mL

Source: PMC5324278, “Novel synthetic analogues of avian β-defensin-12: the role of charge, hydrophobicity, and disulfide bridges in biological functions” (BMC Microbiology, 2017)
